Measured values taken from US7820379B2, “Process for high throughput screening of CpG-based immuno-agonist/antagonist” (Coley Pharmaceutical GmbH, priority 2000, dated 2010).

target: T1, human TLR9 (Homo sapiens, UniProt Q9NR96, H530R/Q688R); assay: NF-κB-luciferase activation in 293 cells transfected with human TLR9 (293-hTLR9-luc); assay type: cell-based; settings: 293 cells transiently transfected with hTLR9 and NF-κB-luc; 8 h; ODN 2 μM, LPS 100 ng/ml
T1 construct: expressed in transfected cells
T1 sequence (Q9NR96 26-1032 H530R/Q688R): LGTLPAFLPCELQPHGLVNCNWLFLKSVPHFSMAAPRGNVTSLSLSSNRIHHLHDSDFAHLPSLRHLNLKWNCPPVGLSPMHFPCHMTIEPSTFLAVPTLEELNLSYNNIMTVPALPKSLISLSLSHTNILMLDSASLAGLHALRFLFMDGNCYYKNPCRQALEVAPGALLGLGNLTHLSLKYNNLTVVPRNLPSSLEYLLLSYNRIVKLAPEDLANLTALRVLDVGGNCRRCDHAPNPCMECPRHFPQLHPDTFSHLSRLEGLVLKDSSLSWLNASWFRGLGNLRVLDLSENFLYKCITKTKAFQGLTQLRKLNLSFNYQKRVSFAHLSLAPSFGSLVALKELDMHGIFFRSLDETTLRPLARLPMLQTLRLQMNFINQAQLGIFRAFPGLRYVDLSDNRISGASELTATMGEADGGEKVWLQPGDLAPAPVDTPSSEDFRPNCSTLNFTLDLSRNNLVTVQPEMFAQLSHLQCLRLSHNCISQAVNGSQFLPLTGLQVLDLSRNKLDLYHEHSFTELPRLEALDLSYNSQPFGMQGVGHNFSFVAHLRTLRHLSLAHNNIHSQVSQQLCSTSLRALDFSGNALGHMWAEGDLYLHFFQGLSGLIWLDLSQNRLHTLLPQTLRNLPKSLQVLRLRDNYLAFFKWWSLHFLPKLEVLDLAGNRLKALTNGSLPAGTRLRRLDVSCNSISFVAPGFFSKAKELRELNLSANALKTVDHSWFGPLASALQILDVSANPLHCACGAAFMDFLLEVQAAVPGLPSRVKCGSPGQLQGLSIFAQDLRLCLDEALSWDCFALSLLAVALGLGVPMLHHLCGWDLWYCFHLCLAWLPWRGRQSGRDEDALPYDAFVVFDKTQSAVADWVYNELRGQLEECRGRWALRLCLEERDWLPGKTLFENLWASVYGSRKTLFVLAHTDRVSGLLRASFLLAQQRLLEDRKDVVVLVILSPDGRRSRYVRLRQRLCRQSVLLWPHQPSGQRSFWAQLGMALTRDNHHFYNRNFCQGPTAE
From the text: Since NF-κB activation is central to the IL-1/TLR signal transduction pathway (Medzhitov R et al., Mol Cell 2:253-258 (1998); Muzio M et al., J Exp Med 187:2097-2101 (1998)), cells were transfected with hTLR9 or co-transfected with hTLR9 and a NF-κB-driven luciferase reporter construct. Human fibroblast 293 cells were transiently transfected with (FIG. 1A) hTLR9 and a six-times NF-κB-luciferase reporter plasmid (NF-κB-luc, kindly provided by Patrick Baeuerle, Munich, Germany) or (FIG. 1B) with hTLR9 alone. After stimulus with CpG-ODN (2006, 2 μM, […], SEQ ID NO:112), GpC-ODN (2006-GC, 2 μM, […], SEQ ID NO:118), LPS (100 ng/ml) or media, NF-κB activation by luciferase readout (8 h, FIG. 1A) or IL-8 production by ELISA (48 h, FIG. 1B) were monitored. Results are representative of three independent experiments.
To generate stable clones expressing human TLR9, murine TLR9, or either TLR9 with the NF-κB-luc reporter plasmid, 293 cells were transfected in 10 cm plates (2×10^6 cells/plate) with 16 μg of DNA and selected with 0.7 mg/ml G418 (PAA Laboratories GmbH, Cölbe, Germany). The clones were also screened for IL-8 production or NF-κB-luciferase activity after stimulation with ODN. Four different types of clones were generated. • 293-hTLR9-luc: expressing human TLR9 and 6-fold NF-κB-luciferase reporter • 293-mTLR9-luc: expressing murine TLR9 and 6-fold NF-κB-luciferase reporter • 293-hTLR9: expressing human TLR9 • 293-mTLR9: expressing murine TLR9 […]
Because stable TLR9 transfectants mirrored primary cell responsiveness to CpG-DNA (FIGS. 4 and 5), it was hypothesized that stable transfectants could potentially discern species-specific CpG-motifs through TLR9 receptors. Therefore 293-hTLR9-luc (expressing human TLR9 and 6-fold NF-κB-luc reporter), 293-mTLR9-luc (expressing murine TLR9 and 6-fold NF-κB-luc reporter), 293-hTLR9 (expressing human TLR9) and 293-mTLR9 (expressing murine TLR9) clones were tested for CpG-DNA motif responsiveness. […] Depicted are both NF-κB-driven luciferase and IL-8 production as readout. […] After lysis of the cells luciferase can be detected photometrically based on an enzymatic reaction by luciferase which creates photons. IL-8 production was monitored using enzyme-linked immunosorbent assay (ELISA). FIG. 11 depicts clones stimulated with ODN 2006 (filled circle), ODN 2006-GC (open circle), ODN 1668 (filled triangle) or ODN 1668-GC (open triangle) at indicated concentrations and NF-κB activation or IL-8 production were measured after 10 and 48 hours, respectively. Results shown in FIG. 11 are representative of three independent experiments. Strikingly, CpG-motif sequence specificity was conferred in a species-specific manner by TLR9. Additionally, the half-maximal concentration for either 2006 or 1668 appears nearly the same as those determined on primary cells (compare FIG. 10 and FIG. 11).
Although 2006 and 1668 are discussed in terms of CpG-motif differences, they are very different in several aspects (see Table 5 for comparison). The lengths are different, 24 versus 20 nucleotides, and 2006 has four CG dinucleotides compared to one in 1668. Additional differences are the CG position relative to the 5′ and 3′ ends and also 5′ sequence differences. In order to determine if motif specificity is a quality of the motif and not the global sequence environment, for this experiment several sequences were produced holding these variables constant. As a starting point, the 1668 sequence was modified by converting the central C to T and the distal TG to CG, thereby creating a second CG in the resulting sequence 5000 (SEQ ID NO:130, Table 5). Then point nucleotide changes were made, progressing toward a 2006-like sequence, 5007 (SEQ ID NO:98). The ODN 5002 (SEQ ID NO:132) is most like 1668 with the exception that C's at positions 12 and 19 have been converted to T's. […]

Substance | NF-κB activation by luciferase readout
TCGTCGTTTTGTCGTTTTGTCGTT [ODN 2006] | responded
lipopolysaccharide [LPS] | not

same assay, conditions: CpG-ODN 2006 compared with CpG-ODN 1668

human TLR9 signaling response | Substance
significantly stronger | TCGTCGTTTTGTCGTTTTGTCGTT [ODN 2006]

same assay, conditions: ODN concentration of half-maximal activation; 293-hTLR9-luc cells, NF-κB-driven luciferase readout, 12 hours; read-out: 293-hTLR9 Kac

Substance | EC50 [µM]
TCCATGACGTTCCTGATGCT (listed as DNA, chemistry not fully specified) [ODN 1668] | > 10
TCCATGACGTTCTTGACGCT (listed as DNA, chemistry not fully specified) [ODN 5000] | 10
TCCATGACGTTCTTGACGTT (listed as DNA, chemistry not fully specified) [ODN 5001] | 7
TCCATGAGCTTCCTGATGCT (listed as DNA, chemistry not fully specified) [ODN 1668-GC] | > 10
TCCATGTCGTTCTTGATGTT (listed as DNA, chemistry not fully specified) [ODN 5004] | 5
TCCATGTCGTTTTTGATGTT (listed as DNA, chemistry not fully specified) [ODN 5005] | 3
TCCATGTCGTTTTTGTCGTT (listed as DNA, chemistry not fully specified) [ODN 5007] | 0.7
TCCATGTCGTTTTTGTTGTT (listed as DNA, chemistry not fully specified) [ODN 5006] | 3
TCGTCGTTTTGTCGTTTTGTCGTT [ODN 2006] | 0.4
TGCTGCTTTTGTGCTTTTGTGCTT (listed as DNA, chemistry not fully specified) [ODN 2006-GC] | > 10
